Test results: US8937065B2, “Compositions and methods for modulating a kinase” (Clevexel Pharma, priority 2011, dated 2015)

Tested on: IL-2-stimulated STAT5 activity in CTLL-2 cells
Experiment: IL-2-stimulated STAT5 activity in CTLL-2 cells (Irf1-bla CTLL-2)
Format: cell-based
Conditions: Mus musculus, mCTLL-2, IL-2 stimulated, read-out: IC50 T cells mechanism-based: mCTLL-2 IL-2 Stimulated STAT5 activity
Method: Mechanism-based inhibition assays using compound 7A (Table 1) were performed using GeneBLAzer® Technology (Invitrogen Corporation), according to manufacturer specifications. Briefly, GeneBLAzer® Technology uses a mammalian-optimized Beta-lactamase reporter gene (bla) combined with a FRET-enabled substrate to provide reliable and sensitive detection in intact cells. Cells were loaded with an engineered fluorescent substrate containing two fluorophores, coumarin and fluorescein. Without bla expression, the substrate molecule remains intact. In this state, excitation of the coumarin results in fluorescence resonance energy transfer to the fluorescein moiety and emission of green light. […] Excitation of the coumarin in the presence of Beta-lactamase activity results in a blue fluorescence signal. […]
An activator assay screen was run to obtain the EC80 concentration of the known activator to add in step 3. • 1. […] 4 μL of the EC80 concentration of activator, as determined in an Activator assay, was added to all wells containing compound and known inhibitor to bring the final assay volume to 40 μL. • 4. […] The assay plate was read on a fluorescence plate reader (Tecan Safire) and the data is analyzed. […]
Irf1-bla CTLL-2 cells were thawed and prepared as described above for the Activator Screen. […] The plate was read on a fluorescence plate reader.

## O=C(CN1CCOCC1)Nc1cccc(-c2nc(-c3c[nH]c(C(=O)N4CCCC4)c3)cs2)c1 [7A, 2-morpholino-N-(3-(4-(5-(pyrrolidine-1-carbonyl)-1H-pyrrol-3-yl)thiazol-2-yl)phenyl)acetamide]
  IC50: 6.2 µM
